Results on seven molecules are retold here after patent US9556221B2, “N-acetyl amino acid ESTER derivatives of betulin and preparation method thereof” (Northeast Forestry University, priority 2014, dated 2017).

Common to all, as to format: cell-based
Experiment [1] has as its system pancreatic cancer cell lines MPC2. The experiment is described as follows: MTT assay, in vitro anti-tumor activity screening, MPC2. To be noted: Homo sapiens, MPC2 pancreatic cancer cell line, read-out: half inhibitory concentration IC50, MPC2. The text has this:
(§1) The present invention also relates to the application of the N-acetyl amino acid ester derivatives of betulin for the preparation of anti-tumor drugs.
(§2) Human colon tumor cell lines HT29, pancreatic cancer cell lines MPC2 and ovarian cancer cell lines MDAH2774 were selected to determine the half inhibitory concentrations (IC50s) of the N-acetyl amino acid ester derivatives of betulin, betulinic acid and betulin, and the results are shown in Table 2.

Experiment [2] has as its system ovarian cancer cell lines MDAH2774. The experiment is described as follows: MTT assay, in vitro anti-tumor activity screening, MDAH2774. Conditions: Homo sapiens, MDAH 2774, MDAH2774 ovarian cancer cell line, read-out: half inhibitory concentration IC50, MDAH2774.
Source text: as §1, §2

For experiment [3], the system named is Human colon tumor cell lines HT29. The experiment in a line: MTT assay, in vitro anti-tumor activity screening, HT29. To be noted: HT-29, HT29 colon tumor cell line, read-out: half inhibitory concentration IC50, HT29.
Source text: as §1, §2
In general terms: Tetrazolium assays rely on reduction of a dye to a coloured formazan, in cell work by metabolically active cells.

For `C=C(C)[C@@H]1CC[C@]2(CO)CC[C@]3(C)[C@H](CC[C@@H]4[C@@]5(C)CC[C@H](O)C(C)(C)[C@@H]5CC[C@]43C)[C@@H]12` [Betulin, Lup-20(29)-ene-3β,28-diol], the IC50 in experiment [1], in experiment [2] and in experiment [3] was > 100 µM in each case.

`C=C(C)[C@@H]1CC[C@]2(C(=O)O)CC[C@]3(C)[C@H](CC[C@@H]4[C@@]5(C)CC[C@H](O)C(C)(C)[C@@H]5CC[C@]43C)[C@@H]12` [Betulinic acid, reference compound]: the IC50 in experiment [1] came out at 38.6 ± 2.91 µM; in experiment [2], 39.5 ± 2.19 µM.

In the case of `C=C(C)[C@@H]1CC[C@]2(COC(=O)C(C)NC(C)=O)CC[C@]3(C)C(CC[C@@H]4[C@@]5(C)CC[C@H](O)C(C)(C)[C@@H]5CC[C@]43C)[C@@H]12` (some centres unmarked) [YWZ-002], the IC50 in experiment [1] is 4.24 ± 0.23 µM; in experiment [2] it was 10.6 ± 0.62 µM; in experiment [3], 6.58 ± 0.24 µM.

With `C=C(C)[C@@H]1CC[C@]2(COC(=O)C(NC(C)=O)C(C)C)CC[C@]3(C)C(CC[C@@H]4[C@@]5(C)CC[C@H](O)C(C)(C)[C@@H]5CC[C@]43C)[C@@H]12` (some centres unmarked) [YWZ-003], the IC50 is 11.4 ± 0.89 µM in experiment [1], 10.9 ± 0.76 µM in experiment [2] and 14.1 ± 0.83 µM in experiment [3].

Take `C=C(C)[C@@H]1CC[C@]2(COC(=O)C3CCCN3C(C)=O)CC[C@]3(C)C(CC[C@@H]4[C@@]5(C)CC[C@H](O)C(C)(C)[C@@H]5CC[C@]43C)[C@@H]12` (some centres unmarked) [YWZ-004]: the IC50 worked out at 5.32 ± 0.21 µM in experiment [1], 2.13 ± 0.05 µM in experiment [2] and 8.88 ± 0.62 µM in experiment [3].

For the molecule `C=C(C)[C@@H]1CC[C@]2(COC(=O)C(CC(C)C)NC(C)=O)CC[C@]3(C)C(CC[C@@H]4[C@@]5(C)CC[C@H](O)C(C)(C)[C@@H]5CC[C@]43C)[C@@H]12` (some centres unmarked) [YWZ-005], the IC50 was 19.7 ± 0.83 µM in experiment [1], 1.38 ± 0.04 µM in experiment [2] and 18.1 ± 1.51 µM in experiment [3].

In the case of `C=C(C)[C@@H]1CC[C@]2(COC(=O)C(NC(C)=O)C(C)CC)CC[C@]3(C)C(CC[C@@H]4[C@@]5(C)CC[C@H](O)C(C)(C)[C@@H]5CC[C@]43C)[C@@H]12` (some centres unmarked) [YWZ-006], the IC50 in experiment [1] came out at 10.2 ± 0.69 µM; in experiment [2] it was 7.26 ± 0.1 µM; in experiment [3], 15 ± 1.31 µM.
